Test results taken from the supplement of paper PMC6045584.
± gives the standard deviation of the averaged measurements.

Tests used:
[1] = compound: T1, C=CC(=O)Nc1cc2c(Nc3ccc(F)c(Cl)c3)ncnc2cc1OCCCN1CCOCC1 [CANERTINIB]; assay: surviving fraction relative to DMSO-only wells; higher = less growth inhibition; details: exposure time: 5 days
How it was run: (§1)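 Surviving fraction was calculated by normalising CellTiter-Glo luminescence to the median of DMSO-only wells. Tumour cell lines in log phase were seeded in 384-well plates at 250–500 cells per well, and 24 hours later were exposed continuously for five days to inhibitors at 0.5, 1, 5, 10, 50, 100, 500 and 1000 nM.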

[2] = compound: T2, CCCCCCCCCCCCCCCC(=O)Nc1ccn([C@@H]2O[C@H](CO)[C@@H](O)[C@@H]2C#N)c(=O)n1 [SAPACITABINE]; assay: as above; details: exposure time: 5 days
How it was run: as §1

[3] = compound: T3, CNC(=O)c1ccc(N2C(=S)N(c3ccc(C#N)c(C(F)(F)F)c3)C(=O)C2(C)C)cc1F [MDV3100]; assay: as above; details: exposure time: 5 days
How it was run: as §1

[4] = compound: T1, CANERTINIB; assay: area under dose-response curve of surviving fraction (unscaled, Aref=0) (surviving fraction x log10(nM)); higher = more resistant; details: exposure time: 5 days; dose range 0.5-1000 nM
How it was run: (§2)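 Inhibitor was applied to tumour cell lines at eight concentrations (0.5 to 1000 nM) for five days in 384-well plates. Luminescence from CellTiter-Glo, scaled to DMSO-only wells, gave surviving fractions in three screens per line, and these were fitted by 3-parameter logistic regression with the drc R package. The area under the curve is an unscaled activity area. Aref was 0, and dose was on a log10 scale.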

[5] = compound: T2, SAPACITABINE; assay: as above; details: exposure time: 5 days; dose range 0.5-1000 nM
How it was run: as §2

[6] = compound: T3, MDV3100; assay: as above; details: exposure time: 5 days; dose range 0.5-1000 nM
How it was run: as §2

[7] = compound: T4, CC1(C)CC(=O)c2c(C(F)(F)F)nn(-c3ccc(C(N)=O)c(N[C@H]4CC[C@H](OC(=O)CN)CC4)c3)c2C1 [SNX-5422]; assay: surviving fraction relative to DMSO-only wells; higher = less growth inhibition; details: exposure time: 5 days
How it was run: as §1

[8] = compound: T5, CC[C@@H]1C(=O)N(C)c2cnc(Nc3ccc(C(=O)NC4CCN(C)CC4)cc3OC)nc2N1C1CCCC1 [BI-2536]; assay: as above; details: exposure time: 5 days
How it was run: as §1

[9] = compound: CN(C)C/C=C/C(=O)Nc1cc2c(Nc3ccc(F)c(Cl)c3)ncnc2cc1O[C@H]1CCOC1 [AFATINIB]; assay: as above; details: exposure time: 5 days
How it was run: as §1

[10] = compound: Cn1cc(C2=Nc3cc(NC(=O)C(N)C4CCCCC4)cc4c3C2=CNNC4=O)cn1; assay: as above; details: exposure time: 5 days
How it was run: as §1

[11] = compound: T6, Nc1nc2[nH]cnc2c(=S)[nH]1 [TIOGUANINE]; assay: as above; details: exposure time: 5 days
How it was run: as §1

[12] = compound: T4, SNX-5422; assay: area under dose-response curve of surviving fraction (unscaled, Aref=0) (surviving fraction x log10(nM)); higher = more resistant; details: exposure time: 5 days; dose range 0.5-1000 nM
How it was run: as §2

[13] = compound: T5, BI-2536; assay: as above; details: exposure time: 5 days; dose range 0.5-1000 nM
How it was run: as §2

[14] = compound: Cn1cc(C2=Nc3cc(NC(=O)C(N)C4CCCCC4)cc4c3C2=CNNC4=O)cn1; assay: as above; details: exposure time: 5 days; dose range 0.5-1000 nM
How it was run: as §2

[15] = compound: T6, TIOGUANINE; assay: as above; details: exposure time: 5 days; dose range 0.5-1000 nM
How it was run: as §2

CCK81 LARGE INTESTINE
surviving fraction ([1]; 0.5 nM): 0.778 ± 0.19 | surviving fraction ([1]; 1 nM): 0.874 ± 0.16 | surviving fraction ([1]; 5 nM): 0.928 ± 0.13 | surviving fraction ([1]; 10 nM): 0.816 ± 0.18 | surviving fraction ([1]; 50 nM): 0.186 ± 0.03 | surviving fraction ([1]; 100 nM): 0.0957 ± 0.019 | surviving fraction ([1]; 500 nM): 0.0373 ± 0.0083 | surviving fraction ([1]; 1000 nM): 0.0263 ± 0.0059 | surviving fraction ([2]; 0.5 nM): 0.972 ± 0.18 | surviving fraction ([2]; 1 nM): 0.94 ± 0.2 | surviving fraction ([2]; 5 nM): 0.813 ± 0.13 | surviving fraction ([2]; 10 nM): 0.7 ± 0.13 | surviving fraction ([2]; 50 nM): 0.427 ± 0.12 | surviving fraction ([2]; 100 nM): 0.482 ± 0.041 | surviving fraction ([2]; 500 nM): 0.456 ± 0.047 | surviving fraction ([2]; 1000 nM): 0.47 ± 0.056 | surviving fraction ([3]; 0.5 nM): 0.843 ± 0.11 | surviving fraction ([3]; 1 nM): 0.8 ± 0.19 | surviving fraction ([3]; 5 nM): 0.717 ± 0.076 | surviving fraction ([3]; 10 nM): 0.728 ± 0.046 | surviving fraction ([3]; 50 nM): 0.75 ± 0.091 | surviving fraction ([3]; 100 nM): 0.757 ± 0.068 | surviving fraction ([3]; 500 nM): 0.79 ± 0.03 | surviving fraction ([3]; 1000 nM): 0.728 ± 0.06 | area under dose-response curve [4]: 1.68 | area under dose-response curve [5]: 2.16 | area under dose-response curve [6]: 2.49

BT20 BREAST
surviving fraction ([1]; 0.5 nM): 0.691 ± 0.0098 | surviving fraction ([1]; 1 nM): 0.712 ± 0.017 | surviving fraction ([1]; 5 nM): 0.654 ± 0.075 | surviving fraction ([1]; 10 nM): 0.609 ± 0.058 | surviving fraction ([1]; 50 nM): 0.908 ± 0.035 | surviving fraction ([1]; 100 nM): 0.899 ± 0.084 | surviving fraction ([1]; 500 nM): 0.82 ± 0.057 | surviving fraction ([1]; 1000 nM): 0.824 ± 0.069 | surviving fraction ([7]; 0.5 nM): 1.14 ± 0.047 | surviving fraction ([7]; 1 nM): 1.1 ± 0.088 | surviving fraction ([7]; 5 nM): 1.14 ± 0.05 | surviving fraction ([7]; 10 nM): 1.094 ± 0.0083 | surviving fraction ([7]; 50 nM): 0.738 ± 0.039 | surviving fraction ([7]; 100 nM): 0.411 ± 0.063 | surviving fraction ([7]; 500 nM): 0.329 ± 0.046 | surviving fraction ([7]; 1000 nM): 0.298 ± 0.052 | surviving fraction ([2]; 0.5 nM): 0.764 ± 0.042 | surviving fraction ([2]; 1 nM): 0.743 ± 0.021 | surviving fraction ([2]; 5 nM): 0.679 ± 0.051 | surviving fraction ([2]; 10 nM): 0.633 ± 0.11 | surviving fraction ([2]; 50 nM): 0.515 ± 0.028 | surviving fraction ([2]; 100 nM): 0.396 ± 0.025 | surviving fraction ([2]; 500 nM): 0.211 ± 0.023 | surviving fraction ([2]; 1000 nM): 0.281 ± 0.051 | surviving fraction ([8]; 0.5 nM): 1.01 ± 0.19 | surviving fraction ([8]; 1 nM): 0.758 ± 0.17 | surviving fraction ([8]; 5 nM): 0.0813 ± 0.018 | surviving fraction ([8]; 10 nM): 0.0613 ± 0.031 | surviving fraction ([8]; 50 nM): 0.0983 ± 0.025 | surviving fraction ([8]; 100 nM): 0.109 ± 0.031 | surviving fraction ([8]; 500 nM): 0.135 ± 0.056 | surviving fraction ([8]; 1000 nM): 0.154 ± 0.052 | surviving fraction ([9]; 0.5 nM): 1.1 ± 0.22 | surviving fraction ([9]; 1 nM): 1.03 ± 0.2 | surviving fraction ([9]; 5 nM): 0.943 ± 0.24 | surviving fraction ([9]; 10 nM): 0.922 ± 0.15 | surviving fraction ([9]; 50 nM): 0.909 ± 0.17 | surviving fraction ([9]; 100 nM): 0.857 ± 0.3 | surviving fraction ([9]; 500 nM): 1.18 ± 0.3 | surviving fraction ([9]; 1000 nM): 1.28 ± 0.15 | surviving fraction ([3]; 0.5 nM): 1.1 ± 0.12 | surviving fraction ([3]; 1 nM): 1.15 ± 0.066 | surviving fraction ([3]; 5 nM): 1.11 ± 0.042 | surviving fraction ([3]; 10 nM): 1.14 ± 0.029 | surviving fraction ([3]; 50 nM): 0.907 ± 0.036 | surviving fraction ([3]; 100 nM): 1.13 ± 0.068 | surviving fraction ([3]; 500 nM): 0.969 ± 0.1 | surviving fraction ([3]; 1000 nM): 1.02 ± 0.03 | surviving fraction ([10]; 0.5 nM): 1.1 ± 0.05 | surviving fraction ([10]; 1 nM): 1.08 ± 0.047 | surviving fraction ([10]; 5 nM): 1.09 ± 0.092 | surviving fraction ([10]; 10 nM): 1.05 ± 0.074 | surviving fraction ([10]; 50 nM): 0.943 ± 0.08 | surviving fraction ([10]; 100 nM): 0.847 ± 0.054 | surviving fraction ([10]; 500 nM): 0.976 ± 0.1 | surviving fraction ([10]; 1000 nM): 0.874 ± 0.065 | surviving fraction ([11]; 0.5 nM): 1.02 ± 0.028 | surviving fraction ([11]; 1 nM): 1.05 ± 0.12 | surviving fraction ([11]; 5 nM): 1.07 ± 0.033 | surviving fraction ([11]; 10 nM): 1.03 ± 0.048 | surviving fraction ([11]; 50 nM): 1.12 ± 0.068 | surviving fraction ([11]; 100 nM): 1.08 ± 0.081 | surviving fraction ([11]; 500 nM): 0.958 ± 0.12 | surviving fraction ([11]; 1000 nM): 0.969 ± 0.18 | area under dose-response curve [4]: 2.52 | area under dose-response curve [12]: 2.46 | area under dose-response curve [5]: 1.76 | area under dose-response curve [13]: 0.663 | area under dose-response curve [6]: 3.5 | area under dose-response curve [14]: 3.17 | area under dose-response curve [15]: 3.43
